Test results taken from patent publication US20230113802A1, “COMPOSITION AND METHOD TO PREPARE LONG-ACTING INJECTABLE SUSPENSION CONTAINING MULTIPLE CANCER DRUGS” (University of Washington, priority 2020, published 2023).

Legend:
[1] = tested on: K-562 cells; assay: AlamarBlue cell growth inhibition, K-562; assay type: cell-based; details: Homo sapiens; for EC50: 120 h, K562 (Bcl-2 −, BTK +), 5 days, read-out: Inhibitory effects (EC50); for IC50: K562, 120 h, K-562, five days, read-out: IC50 (sensitivity)
Protocol: K-562 cells (human leukemia) were purchased from ATCC (Manassas, USA). Additional human leukemic cell lines, MOLT-4 and HL-60, were a generous gift from Carrie Cummings at Fred Hutchinson Cancer Research Center (Seattle, USA). All cells were cultured in Gibco RPMI medium 1640 with Gibco 1% 100×Antibiotic-Antimycotic (Thermo Fisher Scientific, Waltham, USA) and 10% fetal bovine serum. Cells were selected for their different protein expression levels of Bruton's Tyrosine Kinase (BTK) and B Cell Lymphoma 2 (Bcl-2); HL-60 cells express both BTK and Bcl-2, while K-562 and MOLT-4 cells only express BTK and Bcl-2, respectively.
Each cell line was seeded separately into Costar® Black 96-well Assay Plates (Corning USA). Within 1 hr, varying concentrations of individual free drug (ABT-199 or BGB-3111), a combination of both free drugs (w/w 1:1), or a combination of drugs within DcNP's were added to the cells. Following a 5-day incubation, growth of treated cells was compared to untreated cells, quantified using an AlamarBlue Cell Viability Assay (Thermo Fisher Scientific, Waltham, USA) with a PerkinElmer 1420 Multilabel Counter plate reader. Prism graphing software (GraphPad) was used to analyze the absorbance data and to assess relative cell growth.
The effects of DcNP formulation on the effectiveness of ABT-199 and BGB-3111 to inhibit cells that express Bcl-2 and BTK targets is shown in Table 6. Three immortalized human cell lines were selected based on their expression of Bcl-2 (B-cell lymphoma 2; target of venetoclax) and BTK (Bruton's tyrosine kinase; target of zanubrutinib). Cell lines were seeded in 96-well plates at 75,000 cells per well. In separate sets of wells, venetoclax and zanubrutinib were incubated with the cells for 5 days individually as free drug, together as free drug, and together as the drug combination nanoformulation. An AlamarBlue assay was performed to determine relative inhibition of cell growth due to drug presence.

[2] = tested on: HL-60 cells; assay: Leukemic cell uptake of free versus DcNP-associated drug, HL-60; assay type: cell-based, human; details: up to 4 hours
Protocol: (§1) FIGS. 13A-13D are a series of graphs showing the intracellular drug concentrations following incubation with free or DcNP-bound drug. Three leukemic cell lines were incubated with either free or DcNP-bound drug over four hours, and intracellular drug concentration was measured via LC-MS/MS. Both free drugs show relatively little drug uptake compared to the DcNP formulation. Free drug concentrations are roughly a quarter of the DcNP drug concentrations.
(§2) To quantify drug concentrations (both DcNP-bound and free drug), an extraction protocol was established to quantify venetoclax and zanubrutinib. In short, drug was solubilized by diluting the sample into ethyl acetate, liberating it from either the DcNP lipid matrix, mouse plasma, or both. Following centrifugation to remove organic material, the samples were dried with nitrogen gas, reconstituted in acetonitrile, and loaded onto an LC-MS/MS. Drug concentrations were quantified by comparing sample data with standard curves prepared from untreated mouse plasma spiked with known amounts of drug.
(§3) Separations were carried out on a Synergi column (100×2.0 mm) (Phenomenex, Torrance, USA). A C8 guard column (4.0×2.0 mm) was used (Phenomenex, USA). The separations were done under ambient temperature, and the flow rate was set to 0.55 ml/min. The mobile phase for the separations consisted of buffers A (water with 20 mM ammonium acetate) and B (acetonitrile). The single mobile phase ran for five minutes, and it consisted of 25% buffer A and 75% buffer B.
(§4) HL-60 cells were cultured, counted, and aliquoted into multiple 1.5 mL Eppendorf tubes. A free drug solution of ABT-199 and BGB-3111 (1:1 w/w) was added to half of the tubes, while a DcNP solution of identical drug concentrations was added to the second half of tubes. The cells in the tubes were then allowed to incubate normally. At preselected time points, one incubation tube from each group was removed from the incubator, and the cells inside were washed twice with media to remove external drug and DcNP's. Cells were then lysed with acetonitrile, and drug concentrations were quantified according to the aforementioned extraction and LC-MS/MS protocol.

[3] = tested on: K-562 cells; assay: Leukemic cell uptake of free versus DcNP-associated drug, K-562; assay type: cell-based, human
Protocol: as §1, §2, §3, §4

[4] = Pharmacokinetics of venetoclax-zanubrutinib DcNP's versus free drug in mice; assay type: in vivo, BALB/C mice; details: for AUC: female, BALB/C, mouse, plasma; for time detectable in plasma: following administration of the nanoparticles
Source text: as §2, §3
All animal procedures complied with and were approved by the University of Washington Institutional Animal Care and Use Committee. Female BALB/C mice were used, originally obtained from Charles River Laboratories (Wilmington, Mass.). Mice were kept under pathogen-free conditions, exposed to a 12 h light/dark cycle, and received food ad libitum. Three groups of three mice each were administered ABT-199 and BGB-3111: (1) the first group received a 180 μL intravenous injection of 600 μg ABT-199 and 600 μg BGB-3111 in 0.9% NaCl, 20 mM NaHCO3 buffer with trace DMSO and Cremophor EL as solubilizing agents, (2) the second group received an intravenous injection of ABT-199 and BGB-3111 DcNP's in equivalent volume and drug molar concentration as the first group, and (3) the third group received a subcutaneous injection of ABT-199 and BGB-3111 DcNP's in the inner right leg. Plasma was collected at select time points, then extracted and analyzed by HPLC-MS/MS using the previously established protocol to determine plasma concentrations of drug over time.

[5] = HL-60, incubation with free drug (1:1 w/w)
[6] = K-562, incubation with free drug
[7] = iv, 600 ug, intravenous free drug injection (600 μg each drug)
[8] = iv, 600 ug, intravenously administered DcNP's
[9] = sc, subcutaneous injection of DcNP's, plasma over one week

Structure (SMILES): C=CC(=O)N1CCC([C@@H]2CCNc3c(C(N)=O)c(-c4ccc(Oc5ccccc5)cc4)nn32)CC1 [Zanubrutinib, (7S)-2-(4-phenoxyphenyl)-7-(1-prop-2-enoylpiperidin-4-yl)-4,5,6,7-tetrahydropyrazolo[1,5-a]pyrimidine-3-carboxamide]
- EC50 [1]: 8.4 µg/mL
- IC50 [1]: 8.3 µg/mL
- peak intracellular drug concentration ([2]; HL-60, incubation with DcNP's): 256 ng/million cells
- peak intracellular drug concentration [2, 5]: 69 ng/million cells
- peak intracellular drug concentration ([3]; K-562, incubation with DcNP's): 647 ng/million cells
- peak intracellular drug concentration [3, 6]: 109 ng/million cells
- AUC of subcutaneous DcNP's compared to intravenously delivered free drug (ratio) [4]: > 5.92
- AUC [4, 7]: 8300 ng·h/mL
- AUC [4, 8]: 11300 ng·h/mL
- AUC [4, 9]: 49000 ng·h/mL
- time detectable in plasma [4]: less than one day

Structure (SMILES): CC1(C)CCC(CN2CCN(c3ccc(C(=O)NS(=O)(=O)c4ccc(NCC5CCOCC5)c([N+](=O)[O-])c4)c(Oc4cnc5[nH]ccc5c4)c3)CC2)=C(c2ccc(Cl)cc2)C1 [Venetoclax, 4-[4-[[2-(4-chlorophenyl)-4,4-dimethylcyclohexen-1-yl]methyl]piperazin-1-yl]-N-[3-nitro-4-(oxan-4-ylmethylamino)phenyl]sulfonyl-2-(1H-pyrrolo[2,3-b]pyridin-5-yloxy)benzamide]
- EC50 [1]: 16 µg/mL
- IC50 [1]: 15.9 µg/mL
- peak intracellular drug concentration ([2]; HL-60, incubation with DcNP's): 674 ng/million cells
- peak intracellular drug concentration [2, 5]: 192 ng/million cells
- peak intracellular drug concentration ([3]; K-562, incubation with DcNP's): 647 ng/million cells
- peak intracellular drug concentration [3, 6]: 192 ng/million cells
- AUC of subcutaneous DcNP's compared to intravenously delivered free drug (ratio) [4]: over 2.62
- AUC [4, 7]: 88800 ng·h/mL
- AUC [4, 8]: 216000 ng·h/mL
- AUC [4, 9]: 232000 ng·h/mL
- time detectable in plasma [4]: up to seven days
